{
  "source": "patent US12678490B2",
  "about": "“Pharmaceutical combinations comprising insulin and at least an agent selected from meloxicam, bromfenac sodium, acetylsalicylic acid, salicyclic acid and paracetamol” (Eli Lilly and Company, priority 2017, dated 2026)",
  "key": {"[1]": {"test": "Insulin lispro co-formulation stability, main peak loss and HMWP growth by analytical RP-HPLC", "format": "physicochemical", "conditions": "co-formulated with insulin lispro, 37° C.", "procedure": "Two separate formulations are prepared as described above with 20 mM acetylsalicylic acid or 90 mM paracetamol; however, the m-cresol is excluded from the formulation. All samples are adjusted with water to achieve the final concentrations. […] All samples are filtered using 0.22 um syringe filter ([…]). […] The samples are visibly inspected for particulate or precipitation throughout study. Insulin lispro main peak loss and HMWP growth are tracked over time using HPLC. […] The UV detector is set to 214 nm wavelength, column temperature to 40° C., flowrate to 1 mL/min, and injection volume to 5 uL of each formulation. […] The data is collected and slope analysis of rate of change per day is performed using Y by X plots using commercial software."}, "[2]": {"tested_on": "plasma glucose", "test": "Pre-clinical in vivo CSII model, local or oral dexamethasone with insulin lispro bolus", "set-up": "species or system Yucatan mini pigs", "conditions": "for Baseline-adjusted area under the curve for plasma glucose over the 6 hours following an insulin bolus: 0.15 U/kg U100 insulin lispro bolus, mean ± SEM; for improving infusion site viability: local delivery, 0.25 mg/h (6 mg/d)"}},
  "data": [
    {"smiles": "CC(=O)Oc1ccccc1C(=O)O", "note": "[acetylsalicylic acid, 2-acetoxybenzoic acid]", "values": [
      {"measurement": "impact on insulin lispro stability", "setting": "[1]", "result": "minimal impact on insulin lispro stability"}
    ]},
    {"smiles": "C[C@@H]1C[C@H]2[C@@H]3CCC4=CC(=O)C=C[C@]4(C)[C@@]3(F)[C@@H](O)C[C@]2(C)[C@@]1(O)C(=O)CO", "note": "[Dexamethasone, (8S,9R,10S,11S,13S,14S,16R,17R)-9-fluoro-11,17-dihydroxy-17-(2-hydroxyacetyl)-10,13,16-trimethyl-6,7,8,11,12,14,15,16-octahydrocyclopenta[a]phenanthren-3-one]", "values": [
      {"measurement": "Baseline-adjusted area under the curve for plasma glucose over the 6 hours following an insulin bolus", "setting": "[2]; Oral: 25 uL/h insulin placebo + twice daily oral 3 mg dexamethasone, day 0", "result": "−14218 ± 754"},
      {"measurement": "Baseline-adjusted area under the curve for plasma glucose over the 6 hours following an insulin bolus", "setting": "[2]; Oral: 25 uL/h insulin placebo + twice daily oral 3 mg dexamethasone, day 3", "result": "−5265 ± 2130"},
      {"measurement": "Baseline-adjusted area under the curve for plasma glucose over the 6 hours following an insulin bolus", "setting": "[2]; Oral: 25 uL/h insulin placebo + twice daily oral 3 mg dexamethasone, day 5", "result": "−8109 ± 987"},
      {"measurement": "Baseline-adjusted area under the curve for plasma glucose over the 6 hours following an insulin bolus", "setting": "[2]; Oral: 25 uL/h insulin placebo + twice daily oral 3 mg dexamethasone, day 7", "result": "−7750 ± 1491"},
      {"measurement": "Baseline-adjusted area under the curve for plasma glucose over the 6 hours following an insulin bolus", "setting": "[2]; Oral: 25 uL/h insulin placebo + twice daily oral 3 mg dexamethasone, day 10", "result": "−4266 ± 1551"},
      {"measurement": "Baseline-adjusted area under the curve for plasma glucose over the 6 hours following an insulin bolus", "setting": "[2]; Subcutaneous: continuous infusion of 0.25 mg/h dexamethasone, day 0", "result": "−16700 ± 2027"},
      {"measurement": "Baseline-adjusted area under the curve for plasma glucose over the 6 hours following an insulin bolus", "setting": "[2]; Subcutaneous: continuous infusion of 0.25 mg/h dexamethasone, day 3", "result": "−12591 ± 873"},
      {"measurement": "Baseline-adjusted area under the curve for plasma glucose over the 6 hours following an insulin bolus", "setting": "[2]; Subcutaneous: continuous infusion of 0.25 mg/h dexamethasone, day 5", "result": "−12297 ± 755"},
      {"measurement": "Baseline-adjusted area under the curve for plasma glucose over the 6 hours following an insulin bolus", "setting": "[2]; Subcutaneous: continuous infusion of 0.25 mg/h dexamethasone, day 7", "result": "−7149 ± 1555"},
      {"measurement": "Baseline-adjusted area under the curve for plasma glucose over the 6 hours following an insulin bolus", "setting": "[2]; Subcutaneous: continuous infusion of 0.25 mg/h dexamethasone, day 10", "result": "−4893 ± 775"},
      {"measurement": "improving infusion site viability", "setting": "[2]", "result": "up to 5 days"},
      {"measurement": "improving infusion site viability", "setting": "[2]; listed as dexamethosone", "result": 5, "unit": "days"},
      {"measurement": "effect on infusion site viability", "setting": "[2]; orally delivered", "result": "no effect"}
    ]},
    {"smiles": "CC(=O)Nc1ccc(O)cc1", "note": "[paracetamol, N-(4-hydroxypehnyl)acetamide]", "values": [
      {"measurement": "impact on insulin lispro stability", "setting": "[1]", "result": "minimal impact on insulin lispro stability"}
    ]}
  ]
}
